Values joined by “and” are separate entries in the source; they are usually repeats but may differ in a detail not shown here. Equal entries are not always repeated. Where two headings read alike, the source gives them in different places. Each block holds one molecule with its values, some of them ahead of it.
Key:
HeLa-Luc cells [1] = assay: Luciferase assay after siRNA transfection in the presence of TLR7/8 agonists (Example 9); assay type: cell-based, human; conditions: imiquimod 0.25 μg/ml final concentration (row A, column 1) + anti-luciferase-siRNA/Metafectene Pro; 48 hours
Experimental: (§1) The cells are to be plated out at a cell count of 2×10^4 cells/cm^2 per well of 250 μl of complete medium.
(§2) First of all, the first 5 wells of the first three rows of a 48-well plate are each filled with 30 μl of PBS.
(§3) The stock solution of anti-luciferase-siRNA and the non-specific-control-siRNA is adjusted to a concentration of 1 pmol/10 μl with PBS. Then 10 μl of the working solution of the anti-luciferase-siRNA are pipetted into each of the first three wells of the first three rows of the 48-well plate. 10 μl of the working solution of the non-specific-control-siRNA are pipetted into each fourth well.
(§4) The Metafectene Pro reagent is diluted 1:300 with PBS. 20 μl of that dilution are introduced into each well containing siRNA.
(§5) The lipoplexes are then incubated for 20 minutes at room temperature. Then 250 μl of cell suspension are added to each well.
(§6) Two different agonists are added to the first 2 columns of the two 48-well plates, with three different working concentrations of the agonists being used. The agonists are in lyophilised form. They are dissolved with endotoxin-free water to form stock solutions having the concentration 100 μg/ml. The stock solutions are each diluted 1:10 with water to give working solutions.
Of the imiquimod working solution, 0.78 μl (=0.25 μg/ml final concentration) are pipetted into A1, 15.5 μl (=5 μg/ml) into A2 and 31 μl (=10 μg/ml) into A3. […]

HeLa-Luc cells [2] = assay: Vitality determination with trypan blue after siRNA transfection in the presence of TLR7/8 agonists (Example 9); conditions: 48 hours
Experimental: as §1, §2, §3, §4, §5
as §6, with “solutions. […]” for “solutions.”
After the addition of the agonists, the two 48-well plates are incubated in a CO2 incubator for 48 hours.
After an incubation period of 48 hours, the cells of a plate are trypsinised and, using a Neubauer counting chamber, vitality measurement is carried out for each well with trypan blue.

HeLa-Luc cells [3] = assay: Luciferase assay after anti-luciferase-siRNA transfection in the presence of kinase inhibitors (Example 8); conditions: anti-luciferase-siRNA 1 pMol/well, Metafectene Pro
HeLa cells [4] = conditions: transfection repeated on 3rd day, pre-incubation 2 hours, development time 10 min
Experimental: 1st day: HeLa cells are sown in a 48-well plate, the cells being plated out at a cell count of 0.8*10^5 cells per well of 250 μl of complete medium (10% FCS). […] 1 mg of inhibitor is dissolved in 100 μl of DMSO (stock solution). Dilution is then carried out with PBS 1:20 (working solution). […] The lipoplexes are then prepared. […] The two solutions are then mixed and incubated for 15 min. Finally, 50 μl of the lipoplex solution are added to each well. […] Analogous to Example 1 (with half amounts)

HeLa cells [5] = assay: β-Galactosidase reporter gene assay after single or repetitive transfection with antagonist (Example 4); assay type: cell-based, human; conditions: development time 10 min; for β-Galactosidase assay absorption, average value of duplicates 1&2/2: single transfection
Experimental: 1st day: Analogous to Example 3.
The antagonist is adjusted to a concentration of 0.025 μg/μl with PBS.
The lipoplexes are then prepared.
Analogously to Example 3.
Analogous to Example 1 (with half amounts)

[6] = repetitive transfection, antagonist 0.0625 μg per well
[7] = repetitive transfection, antagonist 0.125 μg per well
[8] = repetitive transfection, antagonist 0.250 μg per well
[9] = repetitive transfection, antagonist 0.375 μg per well
[10] = repetitive transfection, antagonist 0.75 μg per well

Vitality (trypan blue staining) (HeLa-Luc cells [2]; Imiquimod 0.5 μg/ml + anti-luciferase-siRNA/Metafectene Pro): 98.6% | Vitality (trypan blue staining) (HeLa-Luc cells [2]; Imiquimod 5 μg/ml + anti-luciferase-siRNA/Metafectene Pro): 88.7% | Vitality (trypan blue staining) (HeLa-Luc cells [2]; Imiquimod 10 μg/ml + anti-luciferase-siRNA/Metafectene Pro): 88.6%
Molecule: CC(C)Cn1cnc2c(N)nc3ccccc3c21 [Imiquimod, 1-(2-methylpropyl)-1H-imidazo[4,5-c]quinoline-4-amine]
Luciferase assay, average value of 3×3 measurements (HeLa-Luc cells [1]): 676 RLU/μl cell extract/sec

Molecule: C[S+]([O-])c1ccc(-c2nc(-c3ccncc3)c(-c3ccc(F)cc3)[nH]2)cc1 (stereo not shown) [SB203580]
Luciferase assay, average value of 3×3 measurements (HeLa-Luc cells [3]; single transfection, SB203580 5 μM): 693 RLU/μl ell extract/sec | Luciferase assay, average value of 3×3 measurements (HeLa-Luc cells [3]; single transfection, SB203580 10 μM): 747 RLU/μl ell extract/sec | Luciferase assay, average value of 3×3 measurements (HeLa-Luc cells [3]; single transfection, SB203580 20 μM): 630 RLU/μl ell extract/sec | Luciferase assay, average value of 3×3 measurements (HeLa-Luc cells [3]; single transfection, SB203580 30 μM): 671 RLU/μl ell extract/sec | Luciferase assay, average value of 3×3 measurements (HeLa-Luc cells [3]; single transfection, SB203580 40 μM): 669 RLU/μl ell extract/sec | Luciferase assay, average value of 3×3 measurements (HeLa-Luc cells [3]; transfection repeated on 3rd day, SB203580 5 μM): 696 RLU/μl ell extract/sec | Luciferase assay, average value of 3×3 measurements (HeLa-Luc cells [3]; transfection repeated on 3rd day, SB203580 10 μM): 656 RLU/μl ell extract/sec | Luciferase assay, average value of 3×3 measurements (HeLa-Luc cells [3]; transfection repeated on 3rd day, SB203580 20 μM): 617 RLU/μl ell extract/sec | Luciferase assay, average value of 3×3 measurements (HeLa-Luc cells [3]; transfection repeated on 3rd day, SB203580 30 μM): 587 RLU/μl ell extract/sec | Luciferase assay, average value of 3×3 measurements (HeLa-Luc cells [3]; transfection repeated on 3rd day, SB203580 40 μM): 610 RLU/μl ell extract/sec

Molecule: N#CC(=C(/N)Sc1ccccc1N)/C(C#N)=C(/N)Sc1ccccc1N [U0126, 1,4-diamino-2,3-dicyano-1,4-bis(o-aminophenylmercapto)butadiene]
Luciferase assay, average value of 3×3 measurements (HeLa-Luc cells [3]; single transfection, U0126 75 μM): 260 RLU/μl ell extract/sec | β-Galactosidase assay absorption, average value of 3 measurements (HeLa cells [4]; inhibitor 5 μM (well E)): 0.72 | β-Galactosidase assay absorption, average value of 3 measurements (HeLa cells [4]; inhibitor 10 μM (well D)): 0.92 | β-Galactosidase assay absorption, average value of 3 measurements (HeLa cells [4]; inhibitor 25 μM (well C)): 0.79 | β-Galactosidase assay absorption, average value of 3 measurements (HeLa cells [4]; inhibitor 50 μM (well B)): 0.90 | β-Galactosidase assay absorption, average value of 3 measurements (HeLa cells [4]; inhibitor 75 μM (well A)): 0.97

Molecule: Human Interleukin-1 Receptor Antagonist (IL1-ra Human): Human interleukin-1 receptor antagonist, Biomol, Cat. No. 54592
β-Galactosidase assay absorption, average value of 3 measurements (HeLa cells [5]; [6]): 0.791 and 1.021 | β-Galactosidase assay absorption, average value of duplicates 3&4/2 (HeLa cells [5]; [6]): 0.906 | β-Galactosidase assay absorption, average value of 3 measurements (HeLa cells [5]; [7]): 0.856 and 1.185 | β-Galactosidase assay absorption, average value of duplicates 3&4/2 (HeLa cells [5]; [7]): 1.020 | β-Galactosidase assay absorption, average value of 3 measurements (HeLa cells [5]; [8]): 1.035 and 1.026 | β-Galactosidase assay absorption, average value of duplicates 3&4/2 (HeLa cells [5]; [8]): 1.030 | β-Galactosidase assay absorption, average value of 3 measurements (HeLa cells [5]; [9]): 1.076 and 1.081 | β-Galactosidase assay absorption, average value of duplicates 3&4/2 (HeLa cells [5]; [9]): 1.078 | β-Galactosidase assay absorption, average value of 3 measurements (HeLa cells [5]; [10]): 1.161 and 1.207 | β-Galactosidase assay absorption, average value of duplicates 3&4/2 (HeLa cells [5]; [10]): 1.184 | β-Galactosidase assay absorption, average value of 3 measurements (HeLa cells [5]; single transfection (columns 1, 2), antagonist 0.0625 μg per well, pre-incubation 7 hours): 0.427 and 0.448 | β-Galactosidase assay absorption, average value of 3 measurements (HeLa cells [5]; single transfection (columns 1, 2), antagonist 0.125 μg per well, pre-incubation 7 hours): 0.415 and 0.435 | β-Galactosidase assay absorption, average value of 3 measurements (HeLa cells [5]; single transfection (columns 1, 2), antagonist 0.250 μg per well, pre-incubation 7 hours): 0.393 and 0.439 | β-Galactosidase assay absorption, average value of 3 measurements (HeLa cells [5]; single transfection (columns 1, 2), antagonist 0.375 μg per well, pre-incubation 7 hours): 0.392 and 0.460 | β-Galactosidase assay absorption, average value of 3 measurements (HeLa cells [5]; single transfection (columns 1, 2), antagonist 0.75 μg per well, pre-incubation 7 hours): 0.443 and 0.455 | β-Galactosidase assay absorption, average value of duplicates 1&2/2 (HeLa cells [5]; antagonist 0.0625 μg per well): 0.437 | β-Galactosidase assay absorption, average value of duplicates 1&2/2 (HeLa cells [5]; antagonist 0.125 μg per well): 0.425 | β-Galactosidase assay absorption, average value of duplicates 1&2/2 (HeLa cells [5]; antagonist 0.250 μg per well): 0.416 | β-Galactosidase assay absorption, average value of duplicates 1&2/2 (HeLa cells [5]; antagonist 0.375 μg per well): 0.426 | β-Galactosidase assay absorption, average value of duplicates 1&2/2 (HeLa cells [5]; antagonist 0.75 μg per well): 0.449

Source: patent US20110045001A1, “Transfection results of non-viral gene delivery systems by influencing of the innate immune system” (Biontex Laboratories GmbH, priority 2008, published 2011)
